Measured values reported in patent US11179452B2, “Antigen specific multi epitope vaccines” (priority 2006, dated 2021).
No end group written: not given here.

Columns and labels:
Type in all cases: cell-based, human
[1] = system: PBMC; assay: Proliferation, direct presentation of peptide via PBMC (monocytes); conditions: for PBL Index of stimulation (SI) via PBMC: naive donors, representative of 5 experiments; for Optimal dose via PBMC: optimal dose required for PBL activation, six donors; for Optimal dose via PBMC / Peak of Proliferation (Hours) via PBMC: average of 5 experiments; for Peak of Proliferation (Hours) via PBMC: visual inspection daily during 5 days
Procedure: (§1) Proliferation analysis was conducted in three different methods. In all three methods, plates were cultured for 3-5 days under visual control and then 0.5 […]Cu/well of 3[H] (Amersham) was added for additional culture of to 18 h at 37° C. In the last step, plates were harvested and the radioactive counts were measured in a □ counter. • 1. DC indirect presentation: In the first method, 100 µl of 2×10^6 thawed PBL were placed in U-shape Bottom 96 well plate (Nunc) with RPMI medium supplemented with 5% H AB serum, L-Glutamine, Sodium Pyruvate, MEM-EAGLE non-essential amino-acids, HEPES and Gentamycin. At the next stage 100 µl of 25×10^4 peptide-pulsed DC were added to each three wells of PBL and underwent proliferation analysis as described above. • 2. PBL direct presentation: In the 2nd method, 100 µl of 2×10^6 PBL were placed in Flat Bottom 96 well plates (Corning) and stimulated with different concentrations (0.05 ug/ml-2 ug/ml) of peptides. In the next step the cells underwent proliferation analysis as described above. • 3. PBMC direct presentation: In third method PNMC were used under similar conditions as described for the second method.
b. Direct presentation of the peptides via PBMC i.e. monocytes
(§2) Five experiments were performed according to the protocol described in material and methods with buffy-coat enriched PBLs obtained from six different naive donors (obtained from the Israeli blood bank).

[2] = system: ImMucin specific T-cell subpopulation; assay: Proliferation of the ImMucin-specific T-cell subpopulation after three stimulations; conditions: one out of two experiments, four donors
Text: (§3) Thawed PBLs underwent 1st stimulation with ImMucin pulsed Autologues DC at a ratio of 20:1 and cultured for 7 days in dedicated T cell Medium. T cell medium contained RPMI medium supplemented with 10% FCS, L-Glutamine, Sodium Pyruvate, MEM-EAGLE non-essential amino-acids, HEPES and Gentamycin Sulphate (Bet-Haemek Industries, IL) as well as with 50 IU/ml of recombinant IL-7 (Cytolab IL). For the second stimulation, PBL were transferred to adherent autologues ImMucin-pulsed PBMC and cultured for additional 5 days in T cell Medium. At the end of the 5 days, medium was partial replaced with fresh medium containing 1 ug/ml of ImMucin and 50 IU/ml IL-2 for a third stimulation of 48 h at 37° C. Following the last stimulation ImMucin T cell line was checked for immune activation properties.
as §1
(§4) For that purpose, an enriched ImMucin-specific T cell subpopulation was produced via repeated stimulation with ImMucin. The specificity of the subpopulation for ImMucin, as well as to the other VXL epitopes, was examined using proliferation assays, cytokine release assays, FACS analysis in which the percentage and type of cells enriched during the enrichment process was analyzed, and using a CTL assay against selected target cells.
(§5) For producing the specific T cell subpopulation PBL were stimulated three times for 7, 5 and 2 days with ImMucin presented via DC and PBMC. Following the 3rd stimulation the cells were evaluated against the different VXL epitopes.

[3] = system: PBL; assay: ELISA of cytokine secretion by PBL stimulated once with peptide-pulsed DC; conditions: peptide DC ratio 16:1, one out of five experiments, six donors
Procedure: (§6) Human PBMC were separated from buffy coat samples of naive donors using Ficoll UNI-SEPmaxi tube. Separated cells were suspended in RPMI medium supplemented with 10% FCS, L-Glutamine, Sodium Pyruvate, MEM-EAGLE non-essential amino-acids, HEPES and Gentamycin Sulphate (Bet-Haemek Industries, IL) and cultivated for 4 h at 37° C. in a culture dish (Corning 150 mm×25 mm). Adherent cells were collected and cultured for 7 days in serum free DCCM-1 medium supplemented with L-Glutamine, huIL-4 (1000 IU/ml) (Cytolab IL) and GM-CSF-80 ug/ml (Cytolab IL). On day seven floating cells were collected and loaded with 50 ug/ml of examined peptide for 18 h at 37° C.
(§7) Cytokine release was studied during the culture of stimulated T-cells. The evaluated samples were collected from the T cell culture medium on day 2, 3, and 5 and stored until use at −20° C.
(§8) […] of the selected capture antibody (e.g. anti-Hu IFN-Gamma, or anti-Hu TNF-alfa or anti IL-2) were added to each well at the final concentration of 5 μg/ml in PBS. Plates were incubated for 2 h at R.T. or over night at 4° C. Next, […] of blocking solution were added for an incubation of 2 h at R.T. […] of evaluated samples were added in duplicate into 2 wells for 2 hours at RT. After 2 h of incubation at R.T plates were washed λ4 times in washing solution. In the next step, a Biotin-conjugated detection antibody (relevant to coated antibody) was added at a final concentration of 10 μg/ml in total volume of 100 μl for 1 h at R.T. Finally, 100 μl/well working dilution (1:10000 in Blocker solution) of Streptavidin-HRP were added to each well and incubated for 1 h at R.T.
(§9) Plates were washed λ6 times with PBS-Tween (0.4%) and 100 μl/well of TMB/E Solution (CHEMICON, Catalog #ES001) was added. The plates were then exposed until blue color appeared in the wells of the positive control and no color was detected in the blank wells. To stop the color reaction, 50 μl/well of 10% of Sulfuric acid was added. The plates were counted in ELISA-Reader using a 450 nm filter.

[4] = system: T-Cell specific subpopulation (Clones); assay: ELISA of cytokine secretion by the T-cell specific subpopulation (clones) stimulated with peptides; conditions: two experiments, four donors
Text: as §3, §7, §8, §9, §4, §5

[5] = system: lymphocytes from naive donors; assay: Proliferation assay, kinetics of lymphocyte activation as summarised in text (presentation mode not stated); conditions: summary of five experiments
Procedure: as §1
A different parameter for assessing the properties of ImMucin and the other VXL-peptide epitopes is by analyzing the time until a maximal peak of activity occurs and the optimal dose for maximal stimulation. Maximal peak of PBL activation is determined when <50% of the PBLs appear in clumps. In these experiments, the kinetic (time) in the proliferation of lymphocytes from the six naive donors stimulated at a fix dose of 0.05-1 ug/ml by ImMucin and other VXL-Peptides, was observed.

[6] = system: PBL; assay: Proliferation of PBL, DC indirect presentation (peptide-pulsed autologous DC); conditions: for PBL Index of stimulation (SI) via DC: naive donors, CPM sample / CPM control, representative of 5 experiments; for IS (SI of the peptides as indicated in Table 7): one out of five experiments; for IS (SI of the peptides as indicated in Table 7) / Optimal dose via DC: six donors; for Optimal dose via DC: optimal dose required for PBL activation; for Optimal dose via DC / Peak of Proliferation (Hours) via DC: average of 5 experiments; for Peak of Proliferation (Hours) via DC: visual inspection by light microscopy daily during 5 days
Procedure: as §6, §1
In the first set of experiments, the 21mer ImMucin, its different 9mer epitopes and other control epitopes (Table 3) were evaluated in proliferation assays with the aim of finding their optimal mode of presentation, stimulated dose as well as their peak of activity (time wise).
To evaluate the most efficient method for priming of PBLs with the different peptides, the following methods were compared:
a. In-direct presentation of the peptide via Autologues-pulsed DC
as §2

[7] = system: PBL; assay: Proliferation of PBL, direct presentation of peptide without APC; conditions: for PBL Index of stimulation (SI) Direct no APC: naive donors, representative of 5 experiments; for Optimal dose Direct no APC: optimal dose required for PBL activation, six donors; for Optimal dose Direct no APC / Peak of Proliferation (Hours) Direct no APC: average of 5 experiments; for Peak of Proliferation (Hours) Direct no APC: visual inspection daily during 5 days
Procedure: In all three methods, plates were cultured for 3-5 days under visual control and then 0.5 □Cu/well of 3[H] (Amersham) was added for additional culture of to 18 h at 37° C. […] DC indirect presentation: In the first method, 100 µl of 2×10^6 thawed PBL were placed in U-shape Bottom 96 well plate (Nunc) with RPMI medium supplemented with 5% H AB serum, L-Glutamine, Sodium Pyruvate, MEM-EAGLE non-essential amino-acids, HEPES and Gentamycin. At the next stage 100 µl of 25×10^4 peptide-pulsed DC were added to each three wells of PBL and underwent proliferation analysis as described above. • 2. PBL direct presentation: In the 2nd method, 100 µl of 2×10^6 PBL were placed in Flat Bottom 96 well plates (Corning) and stimulated with different concentrations (0.05 ug/ml-2 ug/ml) of peptides. In the next step the cells underwent proliferation analysis as described above. • 3. PBMC direct presentation: In third method PNMC were used under similar conditions as described for the second method.
Direct presentation of peptides to PBL without any APC

Sequence	PBL Index of stimulation (SI) via PBMC [1]	Optimal dose via PBMC [1] [µg/mL]	Peak of Proliferation (Hours) via PBMC [1] [h]	IS (Average) [2]	IS (Range) [2]	IFN-gamma [3] [ng/mL]	IL-2 [3] [ng/mL]	IL-2 % of clones [4] [%]	INF-gamma % of clones [4] [%]	TNF-Alfa % of clones [4] [%]	TNF-Alfa Range [4] [ng/mL]	peak of proliferation / maximum stimulation [5] [h]	IS (SI of the peptides as indicated in Table 7) [6]	Optimal dose via DC [6]	Peak of Proliferation (Hours) via DC [6] [h]	PBL Index of stimulation (SI) Direct no APC [7]	Optimal dose Direct no APC [7]	Peak of Proliferation (Hours) Direct no APC [7]	further results
LLLTVLTVV [VXL-1, LLLTVLTVV]	1.59	0.05 to 1	120	3.05	1.66-4.4	0	0	83	33	83	2.7 to 9.8	120	3.2	12.5-25 × × 10e6/well	120	0	No Influence	No proliferation	PBL Index of stimulation (SI) via DC ([6]; listed as VLX-1): 3.2
LLLLTVLTV [VXL-2, LLLLTVLTV]	1.2	0.05 to 1	120	3.275	1.45-5.1	0	0	50	25	83	1.9 to 9.4	120	2.2	12.5-25 × × 10e6/well	120	0	No Influence	No proliferation	TNF-Alfa [3]: 0 ng/mL; IL-2 Range [4]: 2.53 to 10.2 ng/mL; INF-gamma Range [4]: 1.4 to 8.9 ng/mL; IL-2 Range ng/ml ([4]; listed as VXL2): high; INF-gamma Range ng/ml ([4]; listed as VXL2): high; PBL Index of stimulation (SI) via DC [6]: 2.2
